According to patent US9458201B2, “Melanocortin receptor-specific heptapeptides” (Palatin Technologies, Inc., priority 2009, dated 2016):
pKi: −log10 of the molar value. Values belong to the molecule of their own block, whether it stands above or below them. Peptide text beside a SMILES is read from it.

Experiments:
hMC4-R [1] = target: T1, hMC4-R (Homo sapiens (Human), UniProt P32245); experiment: Assay for agonist activity (cAMP accumulation, HEK-293 cells expressing hMC4-R); settings: agonist = intrinsic activity 70% or higher; partial agonist 10-70%
Method: By “intrinsic activity” is meant the maximal functional activity achievable by a compound in a specified melanocortin receptor expressing cell system, such as the maximal stimulation of adenylyl cyclase.
Accumulation of intracellular cAMP was examined as a measure of the ability of the peptides of the present invention to elicit a functional response in HEK-293 cells that express MC4-R. Confluent HEK-293 cells that express recombinant hMC4-R were detached from culture plates by incubation in enzyme-free cell dissociation buffer. Dispersed cells were suspended in Earle's Balanced Salt Solution containing 10 mM HEPES (pH 7.5), 1 mM MgCl2, 1 mM glutamine, 0.5% albumin and 0.3 mM 3-isobutyl-1-methyl-xanthine (IBMX), a phosphodiesterase inhibitor. […] Cells were exposed for 15 minutes at 37° C. to peptides of the present invention dissolved in DMSO (final DMSO concentration of 1%) at a concentration range of 0.05-5000 nM in a total assay volume of 200 μL. […] Data analysis was performed by nonlinear regression analysis with Graph-Pad Prism® software. The maximum efficacies of the test peptides of the present invention were compared to that achieved by the reference melanocortin agonist NDP-αMSH.

[2] = Induction of penile erection in male rats; assay type: in vivo, rat; settings: for induction of penile erection: male Sprague-Dawley rats, 60 minute observation, No. 154 as trifluoracetic acid salt, No. 155 as acetate salt
Description: Each dose group contained six or seven animals, with video observation for sixty minutes following administration.

[3] = Rat feeding study: food intake and body weight change; assay type: in vivo; settings: for effect on food intake and rate of change in body weight: rat feeding studies, 0.3 and 1 mg/kg, bremelanotide as positive control; for decrease in food consumption compared to control: rat
Method: Change in food intake and body weight was evaluated for selected peptides administered by intravenous (IV) or subcutaneous injection routes. Male Sprague-Dawley rats were obtained from Hilltop Lab Animals, Inc. (Scottsdale, Pa.) or other vendors. Animals were individually housed in conventional polystyrene hanging cages and maintained on a controlled 12 hour on/off light cycle. Water and pelleted food was provided ad libitum. The rats were dosed IV with vehicle or selected peptides (0.3 to 1.0 mg/kg), or dosed subcutaneously with vehicle or selected peptides (doses up to 30 mg/kg). The changes in body weight and food intake for the 24 hour period after dosing was determined. The changes in body weight and food intake for the 48 hour and 72 hour periods after dosing can also be measured to determine reversal of changes in body weight and food intake effects back to baseline levels.

hMC4-R [4] = target: T1, hMC4-R; experiment: Competitive binding assay using Eu-NDP-α-MSH; settings: Eu-NDP-α-MSH (values marked *); averaged; read-out: MC4-R Ki
Method: Alternatively, a competitive inhibition binding assay was performed employing Eu-NDP-α-MSH (PerkinElmer Life Sciences catalog No. AD0225) with determination by time-resolved fluorometry (TRF) of the lanthanide chelate. […] After incubation for 90 minutes at 37° C., the reaction was stopped by filtration over AcroWell 96-well filter plates (Pall Life Sciences). The filter plates were washed 4 times with 200 μL of ice-cold phosphate-buffered saline. DELFIA Enhancement solution (PerkinElmer Life Sciences) was added to each well. […] Each assay was conducted in duplicate and mean values were utilized. Ki values were determined by curve-fitting with Graph-Pad Prism® software using a one-site fixed-slope competition binding model.

hMC4-R [5] = target: T1, hMC4-R; experiment: Competitive inhibition binding assay using [I125]-NDP-α-MSH; settings: [I125]-NDP-α-MSH (unmarked values); averaged; read-out: MC4-R Ki
Method: A competitive inhibition binding assay is performed using membrane homogenates prepared from HEK-293 cells that express recombinant hMC4-R, hMC3-R, or hMC5-R, and from B-16 mouse melanoma cells (containing endogenous MC1-R). In some instances, HEK-293 cells that express recombinant hMC1-R were employed. In the examples that follow, all MC3-R, MC4-R and MC5-R values are for human recombinant receptors. […] Membrane homogenates were incubated with 0.2 nM (for hMC4-R) 0.4 nM (for MC3-R and MC5-R) or 0.1 nM (for mouse B16 MC1-R or hMC1-R) [I^125]-NDP-α-MSH (Perkin Elmer) and increasing concentrations of test peptides of the present invention in buffer containing 25 mM HEPES buffer (pH 7.5) with 100 mM NaCl, 2 mM CaCl2, 2 mM MgCl2, 0.3 mM 1,10-phenanthroline, and 0.2% bovine serum albumin. After incubation for 60 minutes at 37° C., the assay mixture was filtered and the membranes washed three times with ice-cold buffer. Filters were dried and counted in a gamma counter for bound radioactivity. […] Maximal specific binding (100%) was defined as the difference in radioactivity (cpm) bound to cell membranes in the absence and presence of 1 μM NDP-α-MSH. […] Each assay was conducted in triplicate and the actual mean values are described, with results less than 0% reported as 0%. Ki values for test peptides of the present invention were determined using Graph-Pad Prism® curve-fitting software.

[6] = 1 mg/kg, 0-2, 0-4 and 0-20 hour periods

T1 sequence (P32245 whole entry): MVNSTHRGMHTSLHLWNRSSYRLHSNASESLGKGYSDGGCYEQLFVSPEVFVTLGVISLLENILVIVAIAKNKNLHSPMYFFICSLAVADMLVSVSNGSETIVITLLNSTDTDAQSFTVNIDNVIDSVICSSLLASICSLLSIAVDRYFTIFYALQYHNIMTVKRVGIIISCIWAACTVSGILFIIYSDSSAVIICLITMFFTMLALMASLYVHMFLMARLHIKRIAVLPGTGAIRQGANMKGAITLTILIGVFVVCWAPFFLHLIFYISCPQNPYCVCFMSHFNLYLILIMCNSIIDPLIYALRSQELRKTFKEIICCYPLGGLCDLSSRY

SMILES: CC(=O)N[C@@H](CCCNC(=N)N)C(=O)N[C@H]1CC(=O)NCCCC[C@@H](C(N)=O)NC(=O)[C@H](Cc2c[nH]c3ccccc23)NC(=O)[C@H](CCCNC(=N)N)NC(=O)[C@@H](Cc2ccccc2)NC(=O)[C@H](Cc2c[nH]cn2)NC1=O [Peptide No. 1, Ac-Arg-cyclo(Asp-His-D-Phe-Arg-Trp-Lys)-NH2]
functional classification at MC4-R (agonist / partial agonist) (hMC4-R [1]): agonist
observed spontaneous erections compared to vehicle ([2]; rat, IV, doses of 0.3 or 1 mg/kg): statistically significant increase
effect on food intake and rate of change in body weight [3]: reduce food intake and decrease the rate of change in body weight
decrease in food consumption compared to control ([3]; 0.3 mg/kg, 0-2, 0-4 and 0-20 hour periods): statistically significant
decrease in food consumption compared to control [3, 6]: statistically significant

SMILES: CC(=O)N[C@@H](CCCNC(=N)N)C(=O)N[C@H]1CC(=O)NCCCC[C@@H](C(N)=O)NC(=O)[C@H](Cc2c[nH]c3ccccc23)NC(=O)[C@H](CCCNC(=N)N)NC(=O)[C@@H](Cc2ccccc2)NC(=O)[C@H](C(C)C)NC1=O [Peptide No. 16, Ac-Arg-cyclo(Asp-Val-D-Phe-Arg-Trp-Lys)-NH2]
functional classification at MC4-R (agonist / partial agonist) (hMC4-R [1]): partial agonist
effect on food intake and rate of change in body weight [3]: reduce food intake and decrease the rate of change in body weight
decrease in food consumption compared to control ([3]; 0.3 mg/kg, 0-2 and 0-4 hour periods): statistically significant
decrease in food consumption compared to control [3, 6]: statistically significant

SMILES: CC(=O)N[C@@H](CCCNC(=N)N)C(=O)N[C@H]1CC(=O)NCCCC[C@@H](C(N)=O)NC(=O)[C@H](Cc2c[nH]c3ccccc23)NC(=O)[C@H](CCCNC(=N)N)NC(=O)[C@@H](Cc2ccccc2)NC(=O)[C@H](CCC(N)=O)NC1=O [Peptide No. 32, Ac-Arg-cyclo(Asp-Gln-D-Phe-Arg-Trp-Lys)-NH2]
functional classification at MC4-R (agonist / partial agonist) (hMC4-R [1]): agonist
observed spontaneous erections ([2]; rat, subcutaneous, doses of 1, 3 or 10 mg/kg): increase in observed spontaneous erections

SMILES: CC(=O)N[C@@H](CCCNC(=N)N)C(=O)N[C@H]1CC(=O)NCCCC[C@@H](C(N)=O)NC(=O)[C@H](Cc2c[nH]c3ccccc23)NC(=O)[C@H](CCCNC(=N)N)NC(=O)[C@@H](Cc2ccccc2)NC(=O)[C@H](CCNC(=O)CN)NC1=O [compound 94, Ac-Arg-cyclo(Asp-Dab(Glycly)-D-Phe-Arg-Trp-Lys)-NH2]
pKi (hMC4-R [4]): 6.96

SMILES: CC(=O)N[C@@H](CCCNC(=N)N)C(=O)N[C@H]1CCCNC(=O)CC[C@@H](C(N)=O)NC(=O)[C@H](Cc2c[nH]c3ccccc23)NC(=O)[C@H](CCCNC(=N)N)NC(=O)[C@@H](Cc2ccccc2)NC(=O)[C@H](CC(N)=O)NC1=O [compound 154, Ac-Arg-cyclo(Orn-Asn-D-Phe-Arg-Trp-Glu)-NH2]
induction of penile erection ([2]; subcutaneous): robustly induce a penile erection

SMILES: CC(=O)N[C@@H](CCCNC(=N)N)C(=O)N[C@H]1CCCCNC(=O)C[C@@H](C(N)=O)NC(=O)[C@H](Cc2c[nH]c3ccccc23)NC(=O)[C@H](CCCNC(=N)N)NC(=O)[C@@H](Cc2ccccc2)NC(=O)[C@H](CC(N)=O)NC1=O [compound 155, Ac-Arg-cyclo(Lys-Asn-D-Phe-Arg-Trp-Asp)-NH2] (HELM PEPTIDE1{[ac].R.K.N.[dF].R.W.D.[am]}$PEPTIDE1,PEPTIDE1,3:R3-8:R3$$$V2.0)
induction of penile erection ([2]; subcutaneous): robustly induce a penile erection

The next lines start with the values.

pKi (hMC4-R [4]): 8.40
SMILES: CC(=O)N[C@H](CCCNC(=N)N)C(=O)N[C@H]1CCCNC(=O)CC[C@@H](C(N)=O)NC(=O)[C@H](Cc2c[nH]c3ccccc23)NC(=O)[C@H](CCCNC(=N)N)NC(=O)[C@@H](Cc2ccccc2)NC(=O)[C@H](Cc2c[nH]cn2)NC1=O [compound 98, Ac-D-Arg-cyclo(Orn-His-D-Phe-Arg-Trp-Glu)-NH2]

functional classification at MC4-R (agonist / partial agonist) (hMC4-R [1]): agonist
SMILES: CC(=O)N[C@@H](CCCNC(=N)N)C(=O)N[C@H]1CCCC(=O)NCC[C@@H](C(N)=O)NC(=O)[C@H](Cc2c[nH]c3ccccc23)NC(=O)[C@H](CCCNC(=N)N)NC(=O)[C@@H](Cc2ccccc2)NC(=O)[C@H](Cc2c[nH]cn2)NC1=O [compound 126, Ac-Arg-cyclo(hGlu-His-D-Phe-Arg-Trp-Dab)-NH2]

functional classification at MC4-R (agonist / partial agonist) (hMC4-R [1]): agonist
SMILES: CC(=O)N[C@@H](CCCNC(=N)N)C(=O)N[C@H]1CCCC(=O)NCC[C@@H](C(N)=O)NC(=O)[C@H](Cc2c[nH]c3ccccc23)NC(=O)[C@H](CCCNC(=N)N)NC(=O)[C@@H](Cc2ccccc2)NC(=O)[C@H](CCN)NC1=O [compound 127, Ac-Arg-cyclo(hGlu-Dab-D-Phe-Arg-Trp-Dab)-NH]

functional classification at MC4-R (agonist / partial agonist) (hMC4-R [1]): agonist
SMILES: CC(=O)N[C@@H](CCCNC(=N)N)C(=O)N[C@H]1CCNC(=O)CCC[C@@H](C(N)=O)NC(=O)[C@H](Cc2c[nH]c3ccccc23)NC(=O)[C@H](CCCNC(=N)N)NC(=O)[C@@H](Cc2ccccc2)NC(=O)[C@H](Cc2c[nH]cn2)NC1=O [compound 128, Ac-Arg-cyclo(Dab-His-D-Phe-Arg-Trp-hGlu)-NH2]

functional classification at MC4-R (agonist / partial agonist) (hMC4-R [1]): agonist
SMILES: CC(=O)N[C@@H](CCCNC(=N)N)C(=O)N[C@H]1CCNC(=O)CCC[C@@H](C(N)=O)NC(=O)[C@H](Cc2c[nH]c3ccccc23)NC(=O)[C@H](CCCNC(=N)N)NC(=O)[C@@H](Cc2ccccc2)NC(=O)[C@H](CCN)NC1=O [compound 129, Ac-Arg-cyclo(Dab-Dab-D-Phe-Arg-Trp-hGlu)-NH2]

pKi (hMC4-R [5]): 7.46
SMILES: CC(=O)N[C@@H](CCCNC(=N)N)C(=O)N[C@H]1CCNC(=O)CCC[C@@H](C(N)=O)NC(=O)[C@H](Cc2c[nH]c3ccccc23)NC(=O)[C@H](CCCNC(=N)N)NC(=O)[C@@H](Cc2ccccc2)NC(=O)[C@H](CCN)NC1=O [compound 136, Ac-Arg-cyclo(Dab-Dab-D-Phe-Arg-Trp-hGlu)-OH]

pKi (hMC4-R [5]): 8.05
SMILES: CC(=O)N[C@@H](CCCNC(=N)N)C(=O)N[C@H]1CC(=O)NCCCC[C@@H](C(N)=O)NC(=O)[C@H](Cc2c[nH]c3ccccc23)NC(=O)[C@H](CCCNC(=N)N)NC(=O)[C@@H](Cc2ccccc2)NC(=O)[C@H](CCN)NC1=O [compound 141, Ac-Cit-cyclo(Asp-Dab-D-Phe-Arg-Trp-Lys)-NH2]
